In patent publication US9650339B2, “Inhibitors of histone demethylases” (Gilead Sciences, Inc., priority 2013, dated 2017) one finds IC50 data, which are given here for 9 molecules.

Assay [1] concerns the target T1, KDM7 (PHF8) (Homo sapiens, UniProt Q9UPP1).
T1 construct: KDM7 (PHF8); BRIC; 1-1322; Bac
Nature of the assay: Histone lysine demethylase AlphaLISA assay, KDM7. Conditions: read-out: PHF8 HDME Inhibition IC50. Type of assay: biochemical. The gist of the method: (§1)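 AlphaLISA demethylation readout: enzyme preincubated 10 min, then 10 min with compounds in 3% DMSO buffer, before biotinylated methyl-lysine histone peptide substrate with 25 μM L-Asc and 10 μM α-KG, room temperature. Acceptor beads then streptavidin donor beads added, dark incubation, plates read.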

The target of assay [2] is T2, KDM4A (JMJD2A) (Homo sapiens, UniProt O75164).
T2 construct: 1-350; purchased BPS Bioscience, US; host or cells: E. coli
T2 sequence (O75164 1-350): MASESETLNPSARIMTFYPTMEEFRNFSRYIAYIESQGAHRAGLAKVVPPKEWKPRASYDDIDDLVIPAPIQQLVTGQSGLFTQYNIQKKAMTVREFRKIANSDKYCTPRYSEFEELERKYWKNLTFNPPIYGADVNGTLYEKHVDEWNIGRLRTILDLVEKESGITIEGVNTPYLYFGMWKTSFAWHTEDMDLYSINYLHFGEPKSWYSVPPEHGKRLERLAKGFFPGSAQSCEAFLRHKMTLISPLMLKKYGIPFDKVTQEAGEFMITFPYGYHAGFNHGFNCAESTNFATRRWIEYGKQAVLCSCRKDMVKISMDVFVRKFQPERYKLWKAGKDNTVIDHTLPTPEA
Nature of the assay: Histone lysine demethylase AlphaLISA assay, KDM4A. Format: biochemical. The conditions noted are these: read-out: KDM4A HDME Inhibition IC50. The essentials: as §1
A general note: Bead proximity is the source of the signal in Alpha formats.

Assay [3] concerns the target T3, KDM6B (JMJD3) (Homo sapiens, UniProt O15054).
T3 construct: 1043-end; purchased BPS; host or cells: Bac (baculovirus system)
As to the kind of experiment: Histone lysine demethylase AlphaLISA assay, KDM6B. Type of assay: biochemical. Conditions: read-out: KDM6B HDME Inhibition IC50. The essentials: as §1

For assay [4], the target named is T4, KDM4C (Homo sapiens, UniProt Q9H3R0).
T4 construct: Full length; host or cells: U2OS
T4 sequence (Q9H3R0 1-1056): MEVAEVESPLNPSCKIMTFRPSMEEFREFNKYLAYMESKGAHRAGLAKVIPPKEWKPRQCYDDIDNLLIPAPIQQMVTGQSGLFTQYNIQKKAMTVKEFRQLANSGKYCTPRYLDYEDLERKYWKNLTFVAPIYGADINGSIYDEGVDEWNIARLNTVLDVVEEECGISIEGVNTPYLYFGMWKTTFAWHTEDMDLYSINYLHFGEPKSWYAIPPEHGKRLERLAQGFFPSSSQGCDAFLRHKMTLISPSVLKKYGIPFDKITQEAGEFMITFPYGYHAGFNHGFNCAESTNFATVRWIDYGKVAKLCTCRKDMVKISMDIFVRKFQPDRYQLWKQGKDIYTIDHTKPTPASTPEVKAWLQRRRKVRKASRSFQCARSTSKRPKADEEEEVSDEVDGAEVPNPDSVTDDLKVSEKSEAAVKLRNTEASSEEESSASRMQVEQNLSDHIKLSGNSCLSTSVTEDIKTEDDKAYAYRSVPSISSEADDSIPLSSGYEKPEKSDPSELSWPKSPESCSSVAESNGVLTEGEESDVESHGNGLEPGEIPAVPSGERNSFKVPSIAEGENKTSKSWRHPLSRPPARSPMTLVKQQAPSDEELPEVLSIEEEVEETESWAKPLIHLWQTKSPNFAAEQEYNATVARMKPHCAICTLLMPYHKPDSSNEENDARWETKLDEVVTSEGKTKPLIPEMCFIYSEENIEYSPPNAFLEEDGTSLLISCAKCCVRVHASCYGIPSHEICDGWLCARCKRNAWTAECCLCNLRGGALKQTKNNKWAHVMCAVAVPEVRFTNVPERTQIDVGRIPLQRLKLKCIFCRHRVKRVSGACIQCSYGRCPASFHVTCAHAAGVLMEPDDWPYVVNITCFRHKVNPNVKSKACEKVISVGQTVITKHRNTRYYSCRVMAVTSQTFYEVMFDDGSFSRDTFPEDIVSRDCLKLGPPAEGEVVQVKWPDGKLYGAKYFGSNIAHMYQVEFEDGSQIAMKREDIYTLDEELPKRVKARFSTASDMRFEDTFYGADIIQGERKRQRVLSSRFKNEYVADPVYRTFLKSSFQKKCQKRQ
As to the kind of experiment: Histone lysine demethylase immunofluorescence assay, U2OS cells transfected with KDM4C. Type of assay: cell-based. Conditions: U2OS cells transfected with pCMVHA KDM4C; mark detected H3K9me3; 20 hours. The gist of the method:
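U2OS cells were transiently transfected with HA-tagged demethylase and reseeded after 6 h into compound-containing DMEM/10% FBS for 20 h. Cells were fixed in formaldehyde and immunostained for HA and the relevant histone methyl mark, then imaged. IC50 is based on mean mark staining in HA+ transfected cells.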

T3 sequence (O15054 1043-1682 isoform O15054-1 limits assumed): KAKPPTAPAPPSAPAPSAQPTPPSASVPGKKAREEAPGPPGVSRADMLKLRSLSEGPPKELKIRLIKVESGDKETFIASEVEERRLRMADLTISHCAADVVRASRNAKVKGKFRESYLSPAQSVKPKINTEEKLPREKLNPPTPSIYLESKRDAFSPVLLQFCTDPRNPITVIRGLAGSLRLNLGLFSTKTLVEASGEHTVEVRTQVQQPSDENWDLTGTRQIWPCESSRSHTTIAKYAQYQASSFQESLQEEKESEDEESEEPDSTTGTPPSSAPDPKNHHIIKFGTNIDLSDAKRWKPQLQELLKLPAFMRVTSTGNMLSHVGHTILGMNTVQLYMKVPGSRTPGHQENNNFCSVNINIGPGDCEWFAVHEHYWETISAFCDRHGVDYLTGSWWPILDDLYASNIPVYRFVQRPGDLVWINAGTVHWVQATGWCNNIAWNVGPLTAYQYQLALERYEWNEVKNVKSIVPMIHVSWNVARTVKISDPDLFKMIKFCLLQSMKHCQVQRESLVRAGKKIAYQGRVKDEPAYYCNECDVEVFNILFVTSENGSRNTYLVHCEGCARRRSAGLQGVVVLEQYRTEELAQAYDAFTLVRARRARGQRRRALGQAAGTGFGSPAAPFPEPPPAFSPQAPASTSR
T1 sequence (Q9UPP1 37-440 limits assumed): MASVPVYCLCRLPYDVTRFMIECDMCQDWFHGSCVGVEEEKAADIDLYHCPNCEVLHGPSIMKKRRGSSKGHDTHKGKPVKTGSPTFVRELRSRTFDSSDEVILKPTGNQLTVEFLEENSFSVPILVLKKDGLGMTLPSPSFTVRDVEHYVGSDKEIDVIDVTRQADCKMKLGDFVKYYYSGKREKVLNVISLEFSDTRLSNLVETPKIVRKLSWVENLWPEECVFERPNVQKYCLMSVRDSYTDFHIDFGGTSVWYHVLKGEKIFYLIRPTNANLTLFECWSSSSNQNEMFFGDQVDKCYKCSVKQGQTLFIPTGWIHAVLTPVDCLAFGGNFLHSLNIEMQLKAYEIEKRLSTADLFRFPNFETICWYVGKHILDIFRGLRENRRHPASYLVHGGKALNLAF

Regarding `CN(C)CCNCc1ccnc(CNCCCN(C)Cc2ccccc2)c1` [Compound 18, benzyl[3-({[4-({[2-(dimethylamino)ethyl]-amino}methyl)pyridin-2-yl]methyl}-amino)propyl]-methylamine], the IC50 in assay [1], in assay [2] and in assay [3] was over 2500 nM in each case.

In the case of `O=Cc1ccnc(CNCC(=O)NC2CCN(Cc3ccccc3)C2)c1` (stereo not shown) [Compound 113, N-(1-benzylpyrrolidin-3-yl)-2-{[(4-formylpyridin-2-yl)methyl]amino}-acetamide], the IC50 – broadly, the concentration needed to halve the response being measured – in assay [1] was over 2500 nM; in assay [2] it was 250 to 2500 nM; in assay [4], over 2500 nM; in assay [3], over 2500 nM.

With `COC(=O)CNCc1cc(/C=N/C2CC2)ccn1` [Compound 59, methyl 2-[({4-[N-cyclopropyl-carboximidoyl]pyridin-2-yl}methyl)amino]-acetate], the IC50 in assay [1] was 250 to 2500 nM; in assay [2], 250 to 2500 nM; in assay [4], over 2500 nM; in assay [3] it was over 2500 nM.

`CCN(CC)CCCCNCc1cc(C2NCCCN2C)ccn1` (stereo not shown) [Compound 68, [4-(diethylamino)butyl]({[4-(1-methyl-1,3-diazinan-2-yl)pyridin-2-yl]methyl})amine] had an IC50 in assay [4] of 250 to 2500 nM.

The molecule `CCN(CCN(C)C)C(=O)CN(Cc1cc(CNC(=O)C(F)(F)F)ccn1)C(=O)C(F)(F)F` [Compound 26, N-[(2-{[N-({[2-(dimethylamino)ethyl]-(ethyl)carbamoyl}-methyl)-2,2,2-trifluoroacetamido]-methyl}pyridin-4-yl)methyl]-2,2,2-trifIuoroacetamide] came in with an IC50 in assay [4] of 250 to 2500 nM.

Regarding `COCCNCc1ccnc(CNCCCN(C)Cc2ccccc2)c1` [Compound 19, benzyl(3-{[(4-{[(2-methoxyethyl)amino]-methyl}pyridin-2-yl)methyl]amino}-propyl)methylamine], the IC50 in assay [1], in assay [2], in assay [4] and in assay [3] was over 2500 nM in each case.

Regarding `O=Cc1ccnc(CNCCCCN(Cc2ccccc2)C2CC2)c1` [Compound 109, 2-[({4-[benzyl-(cyclopropyl)amino]-butyl}amino)methyl]-pyridine-4-carbaldehyde], the IC50 in assay [1], in assay [2] and in assay [4] was over 2500 nM in each case.

In the case of `CN(C)CCCCNCc1cc(CN)ccn1` [Compound 2, [2-({[4-(dimethylamino)butyl]-amino}methyl)pyridin-4-yl]methanamine], the IC50 is over 2500 nM in assay [1], over 2500 nM in assay [2], 250 to 2500 nM in assay [4] and over 2500 nM in assay [3].

In the case of `COc1ccccc1CN1CCC(NC(=O)CNCc2cc(CNC3CC3)ccn2)CC1` [Compound 20, 2-[({4-[(cyclopropylamino)-methyl]pyridin-2-yl}methyl)amino]-N-{1-[(2-methoxyphenyl)methyl]-piperidin-4-yl}acetamide], the IC50 in assay [1] is under 250 nM; in assay [2], under 250 nM; in assay [4], over 2500 nM; in assay [3], over 2500 nM.
